Read-outs that look alike come from different tables or passages of the source.
Tests used:
HCT116 = assay: Cell viability assay (MTT), HCT116; format: cell-based, human; settings: 1% DMSO
Method: (§1) Table 12: 6-day cell viability assay (MTT) in the presence of 10% Fetal Bovine Serum and 1% DMSO, in HMEC1, HCT116, MDA-MB-231, MCF7 and NIH3T3 cell lines. 3 10^3 to 15 10^3 cells were seeded in 48-well plates in growth medium containing 10% FBS, with or without various concentrations of test compounds. Cell cultures were fed every 3 days with the appropriate media. Cell viability was determined on day 6. Data were analyzed and IC50s were calculated from dose-response curves using GraphPad Prism. Results summarized in the tables are mean±SEM of 1 to 8 independent experiments.
(§2) Table 13: 6-day cell viability assay (MTT) in the presence of 0.5% Fetal Bovine Serum and 1% DMSO, in HCT116 and MDA-MB-231 cell lines. 7.5 10^4 to 15 10^4 cells were seeded in 48-well plates in growth medium containing 10% FBS, with or without various concentrations of test compounds. Cell cultures were fed every 3 days with the appropriate media. Cell viability was determined on day 6. Data were analyzed and IC50s were calculated from dose-response curves using GraphPad Prism. Results summarized in the tables are mean±SEM of 1 to 2 independent experiments.
(§3) Table 14: 3-day cell viability assay (MTT) in the presence of 10% Fetal Bovine Serum and 1% DMSO, in DLD1, HCT116, MDA-MB-231, MCF7 and HeLa cells. 7.5 10^3 to 1.5 10^4 cells were seeded in 48-well plates in growth medium containing 10% FBS, with or without various concentrations of test compounds. Data were analyzed and IC50s were calculated from dose-response curves using GraphPad Prism. Results summarized in the tables are mean±SEM of 1 to 7 independent experiments.
(§4) Table 15: 16-hour cell viability assay (MTT) in the presence of 10% Fetal Bovine Serum and 1% DMSO, in HCT116, MDA-MB-231, NIH3T3, HepG2 and primary hepatocytes. 5 10^4 to 10 10^4 cells were seeded in 48-well plates in growth medium containing 10% FBS, with or without various concentrations of test compounds. Data were analyzed and IC50s were calculated from dose-reponse curves using GraphPad Prism. Results summarized in the tables are mean±SEM of 1 to 2 independent experiments.
(§5) In order to determine a compound's effect on cell viability, microculture tetrazolium assays (MTT) were performed as described by Carmichael et al. (1996) with modifications. Four human tumoral cell lines, namely HCT116 colon adenocarcinoma, H460 lung carcinoma, MCF-7 and MDA-MB-231 breast carcinoma cell lines, DLD1 colorectal adenocarcinoma, HeLa adenocarcinoma, HepG2 hepatocellular carcinoma. 3 immortalized but non tumorigenic cell lines, namely NIH3T3 mouse fibroblasts (American Type Culture Collection) and primary hepatocytes (Biopredic international), cultured according to their recommendations together with Human Microvasculature Endothelial Cell line HMEC1 (National Center for Infectious Diseases). Briefly, cells were seeded in 48-well plates 24 hours before drug addition. Cells were treated with 0 to 200 μM (11 concentrations) of compound solubilized in DMSO, adjusting the final concentration of DMSO to 1% in the well. 16 hours, and three or six days after treatment, 0.5 mg/ml MTT (Sigma) was added to the medium and cells were incubated for 1-5 hours at 37° C. before solubilization of formazan crystals in 100% DMSO. Absorbance was measured using a spectrophotometer at a wavelength of 550 nm. Data was analyzed using the GraphPad Prism software (GraphPad Software, Inc.), and IC50 (dose leading to 50% cell death) was calculated from the dose-response curves.

DLD1 = assay: Cell viability assay (MTT), DLD1; format: cell-based; settings: Homo sapiens, DLD-1, 72 h, 10% FBS, 3-day treatment, 1% DMSO
Method: as §3, §5

HMEC1 = assay: Cell viability assay (MTT), HMEC1; format: cell-based, Human; settings: 10% FBS; for IC50: MTT, 6-day treatment, 1% DMSO
Method: as §1, §5

MDA-MB-231 = assay: Cell viability assay (MTT), MDA-MB-231; format: cell-based, human; settings: 10% FBS, 6-day treatment, 1% DMSO, read-out: IC50 μM, MDA-MB-231
Method: as §1, §2, §3, §4, §5

MCF7 = assay: Cell viability assay (MTT), MCF7; format: cell-based; settings: Homo sapiens, MCF7, 144 h, 10% FBS, 6-day treatment, 1% DMSO
Method: as §1, §3, §5

NIH 3T3 = assay: Cell viability assay (MTT), NIH 3T3; format: cell-based, mouse; settings: 10% FBS, 6-day treatment, 1% DMSO
Method: as §1, §4, §5

NIH3T3 = assay: Boyden chamber migration assay, NIH3T3; format: cell-based, mouse; settings: Mus musculus, NIH3T3, 16 h, FBS as chemoattractant
Method: FIG. 4: Migration assays. (A) Wound healing assay in REF cells. 7.6 10^4 cells were plated on coverslips 48 hours before the experiment. The cells were pre-treated for 30 min. with the compounds, and then a scrape was done using a pipette tip. The scraped coverslips in treatment medium were put under a thermostated microscope coupled to a video camera. Movies were analyzed as described in material and methods, and velocity and total distance covered by the cells were evaluated. Bar graphs represent the mean±SEM of 2 to 4 experiments. (B) Boyden chamber migration assay in HMEC1, NIH3T3 and MDA-MB-231 cells. 5 10^4 to 7.5 10^4 Cells, resuspended in culture medium with or without FBS and with different compound concentrations, were seeded in the upper Boyden blind well on top of 8 μm pore-sized filters. The ability of the cells to migrate through the filter was assayed in the absence or presence of FBS in the lower Boyden chamber. After 16 hours incubation, the medium was removed and replaced with calcein-AM containing medium. After labeling, cells were washed with HBSS and fluorescence was read in a fluorescence plate reader. Fluorescence values were normalized against the fluorescence obtained for the 1% DMSO control. The data plotted are the means±SEM of 2 to 4 independent experiments.
An essential characteristic of malignant cells is their ability to migrate, invade host tissues and to produce metastases. In order to evaluate the capacity of one compound to affect the ability of tumoral cells to migrate, migration assays were performed using highly invasive tumoral cells MDA-MB-231, endothelial cells HMEC1 or fibroblastic cells NIH3T3. This assay was performed using Falcon HTS Fluoroblock inserts. Culture medium containing Fetal Bovine Serum (FBS; which is used as a chemoattractant) was added to the plate wells and 2 10^4 to 7.5 10^4 cells resuspended in medium without FBS and with 0.1% BSA were added to each insert well. The compound of interest was added to the medium in both the upper and the lower chambers. Plates were incubated for 16 hours at 37° C. Following incubation, the medium was removed from the upper chamber and the entire insert plate was transferred to a second 24-well plate containing 4 μg/ml Calcein-AM™ in medium containing 0.1% BSA. The plates were incubated for one hour at 37° C., rinsed with Hanks Buffered Saline (HBSS). Fluorescence data were collected using Fluoroskan Ascent FL fluorescence plate reader at an excitation wavelength (Ex) of 485 nm and emission wavelength (Em) of 517 nm. Only those labelled cells that passed through the Matrigel layer and the membrane were detected. Data were analyzed using the GraphPad Prism software and IM50s (dose at which 50% inhibition of cell migration is observed) were calculated.

HMEC-1 cells = assay: Tubule formation (tubulogenesis) assay on Matrigel; format: cell-based, Human
Method: FIG. 5: Tubulogenesis assay (number of junctions). 2 10^4 Cells were plated on Matrigel-coated wells as described in the material and methods. Pictures of each well were taken after a 7-hours incubation. The “number of junctions” parameter was quantitated using the AngioSys software and data were analyzed using GraphPad Prism for IT50 calculation. Values represent the mean±SEM of 2 to 30 independent experiments.
The endothelial cell tube formation assay, or tubulogenesis assay, is an in vitro assay that is widely accepted to accurately reflect number of terminal stages of the angiogenic process such as attachment, migration and differentiation into tubular structures. In this model, endothelial cells are cultured on a monolayer of reconstituted basement membrane components (Matrigel) and form, in a few hours, capillary-lilke structure. Therefore, this system is a useful and powerful tool for rapidly screening anti-angiogenic agents by monitoring inhibition of endothelial cells morphogenesis on extracellular matrix.
HMEC-1 cell line is cultured in MCDB-131 medium (Sigma) supplemented with 15% FBS, 10 ng/ml recombinant human epidermal growth factor (Invitrogen) and 1 μg/ml hydrocortisone. Cells are cultured to 70-80% confluence. A 96-well plate was coated with Matrigel® Basement Membrane Matrix (Becton Dickinson). 2 10^4 HMEC-1 cells were seeded into each well. The test or control compounds were diluted in DMSO and added to the coated plate. The plate was subsequently incubated for 6 to 8 hours at 37° C., 5% CO2 atmosphere to allow tubule formation. The cells were then incubated with 1.25 μg/ml Calcein AM for 15 minutes at 37° C., 5% CO2. Pictures of each well were taken using a fluorescent microscope and a digital camera (Nikon Coolpix 990). Images were analysed using AngioSys software (TCS Cellworks) that allows quantification of the total tubule length and of the number of junctions, two parameters representative of tubule formation/disruption. Data was analyzed using the GraphPad Prism software, and IT50s (dose leading to 50% inhibition of tubulogenesis) was calculated.

[1] = Homo sapiens, MDA-MB-231, 144 h
[2] = Homo sapiens, HCT-116, 144 h, 10% FBS, 6-day treatment

IC50 (MDA-MB-231) | IC50 (MDA-MB-231; [1]) | IC50 (HCT116; 10% FBS, 6-day treatment) | IC50 (HCT116; [2]) | melting point | SMILES | IC50 (HMEC1; Homo sapiens, HMEC-1, 144 h) | IC50 (NIH 3T3; Mus musculus, NIH3T3, 144 h) | other results
 |  |  |  |  | O=c1[nH]cc(F)c(=O)[nH]1 [5FU, 5-FluoroUracile, reference compound] |  |  | IC50 (HCT116; Homo sapiens, HCT-116, 72 h, 10% FBS, 3-day treatment): 7.83 µM; IC50 (DLD1): 5.44 µM
8.8 µM | < 9 µM |  |  |  | CCN(CC)C(=O)N1CCN(Cc2cc(=O)c(OCCCCCSc3ccnc4cc(C(F)(F)F)ccc34)co2)CC1 [EHT 5743, 4-((5-(5-(7-(Trifluoromethyl)quinolin-4-ylthio)pentyloxy)-4-oxo-4H-pyran-2-yl)methyl)-N,N-diethylpiperazine-1-carboxamide] | < 10 µM | 2.4 µM | difference of activity in HMEC1 cells as compared to HCT116 cells (HMEC1; MTT 6 days, compounds most active in HCT116): 20 fold; IC50 (HMEC1): 8 µM; IC50 (MCF7): 1.2 µM
 | 13.5 µM |  | 15.5 µM | 71.6 °C | O=c1cc(CN2CCOCC2)occ1OCc1ccccc1CSc1ccnc2cc(C(F)(F)F)ccc12 [EHT 9069, 5-((2-((7-(Trifluoromethyl)quinolin-4-ylthio)methyl)phenyl)methoxy)-2-(morpholinomethyl)-4H-pyran-4-one] | 34.8 µM | 41.3 µM | 
 | 22.5 µM |  | 18.9 µM |  | Cc1[nH]c(/C=C2\C(=O)Nc3ccccc32)c(C)c1CCC(=O)O [SU-6668, reference compound] | 36 µM | 35.7 µM | potency in tubulogenesis assay (HMEC-1 cells; VEGF and FGF free conditions): weakly potent
 |  |  | 4.4 µM | 71.2 °C | CCN(CC)Cc1cc(=O)c(OCCCCCSc2ccnc3cc(C(F)(F)F)ccc23)co1 [EHT 7370, 2-((Diethylamino)methyl)-5-(5-(7-(trifluoromethyl)quinolin-4-ylthio)pentyloxy)-4H-pyran-4-one] | 12.1 µM |  | 
 |  |  | 9.3 µM | 164.7 °C | Cl.Cl.Cl.O=c1cc(CN2CCNCC2)occ1OCCCCCOc1ccnc2cc(Cl)ccc12 [EHT 0872, 5-(5-(7-Chloroquinolin-4-yloxy)pentyloxy)-2-((piperazin-1-yl)methyl)-4H-pyran-4-one trihydrochloride] | 28.4 µM |  | 
 |  |  | 6 µM | 122.1 °C (dec.) | COCOCc1cc(=O)c(OCCCCCSc2ccnc3cc(C(F)(F)F)ccc23)co1 [EHT 2168, 2-Methoxymethoxymethyl-5-[5-(7-trifluoromethyl-quinolin-4-ylsulfanyl)-pentyloxy]-4H-pyran-4-one] | 19.3 µM |  | 
 |  | 2.3 µM | < 4 µM | 99.5 °C | CC(=O)N1CCN(Cc2cc(=O)c(OCCCCCSc3ccnc4cc(C(F)(F)F)ccc34)co2)CC1 [EHT 3980, 5-(5-(7-(Trifluoromethyl)quinolin-4-ylthio)pentyloxy)-2-((4-acetylpiperazin-1-yl)methyl)-4H-pyran-4-one] | 38.5 µM |  | 
5 µM | < 9 µM | 3.7 µM | < 4 µM |  | O=c1cc(CN2CCOCC2)occ1OCc1ccc(CSc2ccnc3cc(C(F)(F)F)ccc23)cc1 [EHT 2218, 5-((4-((7-(Trifluoromethyl)quinolin-4-ylthio)methyl)phenyl)methoxy)-2-(morpholinomethyl)-4H-pyran-4-one] | 19.3 µM | 26 µM | IC50 (HCT116; Homo sapiens, HCT-116, 144 h, 0.5% FBS, 6-day treatment): 3.3 µM; fold more active than reference compound CAI in tubulogenesis (HMEC-1 cells; HMEC1 on Matrigel): 4 fold; IC50 (HMEC-1 cells; Homo sapiens, HMEC-1, HMEC1 on Matrigel, 6 to 8 hours, read-out: IC50, tubulogenesis (number of junctions)): 30.8 µM

SMILES | IC50 (MDA-MB-231) | IC50 (MDA-MB-231; [1]) | IC50 (HCT116; 10% FBS, 6-day treatment) | IC50 (HCT116; [2]) | melting point | IC50 (HMEC1; Homo sapiens, HMEC-1, 144 h) | IC50 (NIH 3T3; Mus musculus, NIH3T3, 144 h) | other results
O=c1cc(CN2CCOCC2)occ1OCCCCCSc1ccnc2cc(C(F)(F)F)ccc12 [EHT 7168, 2-Morpholin-4-ylmethyl-5-[5-(7-trifluoromethyl-quinolin-4-ylsulfanyl)-pentyloxy]-4H-pyran-4-one] | 9.8 µM |  | 4.9 µM |  |  |  |  | IC50 (HMEC1): 25.2 µM; IC50 (NIH 3T3): 12.7 µM; IC50 (NIH3T3): 16.4 ± 3.4 µM

Source: patent publication US7514432B2, “Compounds and methods of treating cell proliferative diseases, retinopathies and arthritis” (Exonhit Therapeutics SA, priority 2003, dated 2009)
